From ChEMBL document CHEMBL6115013, “Design, synthesis, and biological evaluation of novel azaspirooxindolinone derivatives as potent inhibitors of ITK and BTK-dependent cancers” (Bioorg Med Chem, 2025)
Each block holds one compound with its values, some of them ahead of it.

Columns and labels:
[1] = Cytotoxicity against ITK/BTK null human BJ cells assessed as inhibition of cell growth by MTS assay; type: toxicity, cell-based
[2] = Cytotoxicity against ITK/BTK null human MRC5 cells assessed as inhibition of cell growth by MTS assay; type: toxicity, cell-based
[3] = tested on: Ramos; assay: Cytotoxicity against BTK positive human Ramos cells assessed as inhibition of cell growth by MTS assay
[4] = tested on: HCT-116; assay: Cytotoxicity against ITK/BTK null human HCT-116 cells assessed as inhibition of cell growth by MTS assay
[5] = tested on: CCRF-CEM; assay: Cytotoxicity against ITK positive human CCRF-CEM cells assessed as inhibition of cell growth by MTS assay
[6] = tested on: K562; assay: Cytotoxicity against BTK positive human K562 cells assessed as inhibition of cell growth by MTS assay
[7] = tested on: Jurkat; assay: Cytotoxicity against ITK positive human Jurkat cells assessed as inhibition of cell growth by MTS assay
[8] = tested on: A549; assay: Cytotoxicity against ITK/BTK null human A549 cells assessed as inhibition of cell growth by MTS assay
[9] = tested on: U2OS; assay: Cytotoxicity against ITK/BTK null human U2OS cells assessed as inhibition of cell growth by MTS assay
[10] = Antiproliferative activity against human K562-Tax cells; type: functional, cell-based
[11] = tested on: CEM-DNR; assay: Antiproliferative activity against human CEM-DNR cells; type: functional, cell-based
[12] = tested on: CCRF-CEM; assay: Antiproliferative activity against human CCRF-CEM cells; type: functional, cell-based
[13] = tested on: Jurkat; assay: Antiproliferative activity against human Jurkat cells; type: functional, cell-based
[14] = tested on: Ramos; assay: Antiproliferative activity against human Ramos cells; type: functional, cell-based
[15] = molecular target: T1, Tyrosine-protein kinase ITK/TSK (Homo sapiens, UniProt Q08881); assay: Inhibition of human ITK using poly (Glu:Tyr) as substrate in presence of ATP by ADP-glo kinase assay
T1 sequence (Q08881 whole entry): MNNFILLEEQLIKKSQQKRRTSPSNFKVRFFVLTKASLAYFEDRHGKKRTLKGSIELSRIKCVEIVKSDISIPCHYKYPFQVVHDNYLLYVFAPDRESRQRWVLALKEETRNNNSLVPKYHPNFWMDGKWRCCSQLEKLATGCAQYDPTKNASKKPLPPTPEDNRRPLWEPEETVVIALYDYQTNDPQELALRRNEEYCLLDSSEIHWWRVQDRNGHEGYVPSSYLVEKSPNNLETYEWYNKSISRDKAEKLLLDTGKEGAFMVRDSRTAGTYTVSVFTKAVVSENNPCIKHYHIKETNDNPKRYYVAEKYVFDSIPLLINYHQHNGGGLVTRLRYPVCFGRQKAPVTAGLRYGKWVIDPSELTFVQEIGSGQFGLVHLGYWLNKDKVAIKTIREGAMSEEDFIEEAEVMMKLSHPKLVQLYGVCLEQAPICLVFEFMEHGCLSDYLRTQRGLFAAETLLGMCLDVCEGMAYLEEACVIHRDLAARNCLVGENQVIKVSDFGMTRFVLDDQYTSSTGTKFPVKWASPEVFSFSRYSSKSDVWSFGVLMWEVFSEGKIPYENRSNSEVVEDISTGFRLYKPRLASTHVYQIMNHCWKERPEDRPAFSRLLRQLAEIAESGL

[16] = tested on: MOLT-4; assay: Antiproliferative activity against human MOLT-4 cells; type: functional, cell-based

SMILES: C=CC(=O)N1CCC[C@@H](n2nc(-c3ccc(Oc4ccccc4)cc3)c3c(N)ncnc32)C1 [IBRUTINIB]
IC50 [1]: 28.9 µM | IC50 [2]: 27.9 µM

SMILES: O=C1Nc2ncc(-c3ccc4c(c3)OCO4)cc2C12CCN(C(=O)C1(C(F)(F)F)CC1)CC2
IC50 [3]: 1.82 µM | IC50 [1]: > 50 µM | IC50 [4]: > 50 µM | IC50 [5]: 19.5 µM | IC50 [6]: > 50 µM | IC50 [7]: 29.4 µM | IC50 [8]: > 50 µM | IC50 [2]: > 50 µM | IC50 [9]: > 50 µM

SMILES: O=C1Nc2ncc(-c3ccc4c(c3)OCO4)cc2C12CCN(S(=O)(=O)C(F)(F)F)CC2
IC50 [3]: > 50 µM | IC50 [1]: > 50 µM | IC50 [4]: > 50 µM | IC50 [5]: > 50 µM | IC50 [6]: > 50 µM | IC50 [7]: > 50 µM | IC50 [8]: > 50 µM | IC50 [2]: > 50 µM | IC50 [9]: > 50 µM

IC50 [12]: 3.79 µM | IC50 [13]: 2.49 µM | IC50 [14]: 16.4 µM
SMILES: CC(C)(F)C(=O)N1CCC2(CC1)C(=O)Nc1ncc(-c3ccc4c(c3)OCO4)cc12
IC50 [10]: 3.68 µM | IC50 [11]: 6.01 µM

SMILES: CCOC(=O)C(C)(C)C(=O)N1CCC2(CC1)C(=O)Nc1ncc(-c3ccc4c(c3)OCO4)cc12
IC50 [3]: > 50 µM | IC50 [1]: > 50 µM | IC50 [4]: > 50 µM | IC50 [5]: > 50 µM | IC50 [6]: > 50 µM | IC50 [7]: 29.2 µM | IC50 [8]: > 50 µM | IC50 [2]: > 50 µM | IC50 [9]: > 50 µM

IC50 [15]: > 10 µM
SMILES: C=C(F)C(=O)N1CCC2(CC1)C(=O)Nc1ncc(-c3ccc4c(c3)OCO4)cc12
IC50 [3]: 1.38 µM | IC50 [1]: > 50 µM | IC50 [4]: > 50 µM | IC50 [5]: 14.1 µM | IC50 [6]: > 50 µM | IC50 [7]: 4.16 µM | IC50 [8]: > 50 µM | IC50 [2]: > 50 µM | IC50 [9]: 18.9 µM

IC50 [15]: 0.91 µM
SMILES: CC(F)(F)C(=O)N1CCC2(CC1)C(=O)Nc1ncc(-c3ccc4c(c3)OCO4)cc12
IC50 [3]: 3.06 µM | IC50 [1]: > 50 µM | IC50 [4]: > 50 µM | IC50 [5]: 17.2 µM | IC50 [6]: > 50 µM | IC50 [7]: 3.58 µM | IC50 [8]: > 50 µM | IC50 [2]: > 50 µM | IC50 [9]: > 50 µM

IC50 [12]: > 50 µM | IC50 [13]: > 50 µM | IC50 [14]: > 50 µM | IC50 [16]: > 50 µM
SMILES: COC(=O)C1(C(=O)N2CCC3(CC2)C(=O)Nc2ncc(-c4cc(OC)c(OC)c(OC)c4)cc23)CC1
IC50 [10]: > 50 µM | IC50 [11]: > 50 µM

SMILES: O=C(N1CCC2(CC1)C(=O)Nc1ncc(-c3ccc4c(c3)OCO4)cc12)C1(O)CC1
IC50 [3]: > 50 µM | IC50 [1]: > 50 µM | IC50 [4]: > 50 µM | IC50 [5]: > 50 µM | IC50 [6]: > 50 µM | IC50 [7]: > 50 µM | IC50 [8]: > 50 µM | IC50 [2]: > 50 µM | IC50 [9]: > 50 µM

SMILES: N#CC1(C(=O)N2CCC3(CC2)C(=O)Nc2ncc(-c4ccc5c(c4)OCO5)cc23)CC1
IC50 [3]: 1.42 µM | IC50 [1]: > 50 µM | IC50 [4]: > 50 µM | IC50 [5]: > 50 µM | IC50 [6]: > 50 µM | IC50 [7]: 50 µM | IC50 [8]: > 50 µM | IC50 [2]: > 50 µM | IC50 [9]: > 50 µM

SMILES: CC(C)(C#N)C(=O)N1CCC2(CC1)C(=O)Nc1ncc(-c3ccc4c(c3)OCO4)cc12
IC50 [3]: 10.1 µM | IC50 [1]: > 50 µM | IC50 [4]: > 50 µM | IC50 [5]: 14.3 µM | IC50 [6]: > 50 µM | IC50 [7]: 9.36 µM | IC50 [8]: > 50 µM | IC50 [2]: > 50 µM | IC50 [9]: > 50 µM

IC50 [12]: 15.2 µM | IC50 [13]: 14.8 µM | IC50 [14]: 23.9 µM | IC50 [16]: 28.8 µM
SMILES: COC(=O)C1(C(=O)N2CCC3(CC2)C(=O)Nc2ncc(-c4ccc5c(c4)OCO5)cc23)CC1
IC50 [10]: 12.5 µM | IC50 [11]: 20.4 µM

SMILES: C=CC(=O)N1CCC2(CC1)C(=O)Nc1ncc(-c3ccc4c(c3)OCO4)cc12
IC50 [3]: > 50 µM | IC50 [1]: > 50 µM | IC50 [4]: > 50 µM | IC50 [5]: 13.5 µM | IC50 [6]: > 50 µM | IC50 [7]: > 50 µM | IC50 [8]: > 50 µM | IC50 [2]: > 50 µM | IC50 [9]: > 50 µM

IC50 [12]: 25.5 µM
SMILES: O=C(N1CCC2(CC1)C(=O)Nc1ncc(-c3ccc4c(c3)OCO4)cc12)C1(CF)CC1

SMILES: CC(C)(O)C(=O)N1CCC2(CC1)C(=O)Nc1ncc(-c3ccc4c(c3)OCO4)cc12
IC50 [3]: > 50 µM | IC50 [1]: > 50 µM | IC50 [4]: > 50 µM | IC50 [5]: > 50 µM | IC50 [6]: > 50 µM | IC50 [7]: > 50 µM | IC50 [8]: > 50 µM | IC50 [2]: > 50 µM | IC50 [9]: > 50 µM

SMILES: O=C(O)C1(C(=O)N2CCC3(CC2)C(=O)Nc2ncc(-c4ccc5c(c4)OCO5)cc23)CC1
IC50 [3]: > 50 µM | IC50 [1]: > 50 µM | IC50 [4]: > 50 µM | IC50 [5]: > 50 µM | IC50 [6]: > 50 µM | IC50 [7]: > 50 µM | IC50 [8]: > 50 µM | IC50 [2]: > 50 µM | IC50 [9]: > 50 µM

IC50 [12]: 7.26 µM | IC50 [13]: 2.25 µM | IC50 [14]: 24.3 µM
SMILES: O=C(N1CCC2(CC1)C(=O)Nc1ncc(-c3ccc4c(c3)OCO4)cc12)C1(F)CC1
IC50 [10]: 6.09 µM | IC50 [11]: 11.9 µM

SMILES: O=C(N1CCC2(CC1)C(=O)Nc1ncc(-c3ccc4c(c3)OCO4)cc12)C(F)(F)F
IC50 [3]: > 50 µM | IC50 [1]: > 50 µM | IC50 [4]: > 50 µM | IC50 [5]: 20.7 µM | IC50 [6]: > 50 µM | IC50 [7]: 10.8 µM | IC50 [8]: > 50 µM | IC50 [2]: > 50 µM | IC50 [9]: > 50 µM
